# Data from US3982931A, “N,N-di-sec.butyl-benzamide herbicides” (priority 1967, dated 1976).
# Legend:
# [1] = system: amaranthus retroflexus L.; assay: herbicidal activity, soil treatment one day after sowing; format: in vivo
# artemisia vulgaris L. = assay: as above; format: in vivo
# chenopodium album L. = assay: as above; format: in vivo
# [2] = system: echinocloa crus-galli R.S.; assay: as above; format: in vivo
# setaria glauca L. = assay: as above; format: in vivo
# vicia sativa L. = assay: as above; format: in vivo
# How it was run: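 Pre-emergence soil treatment one day after sowing; activity scored visually on a […] scale against untreated control, from slight difference (1) to no germination or total containment at emergence (4); intermediate activity recorded as both classes, preeminent value first.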
# avena sativa (oats) [3] = assay: activity on agrarian species, soil treatment one day after sowing; format: in vivo, Avena sativa L.
# Source text: (§1) The infesting species and the agrarian species have been indicated in Table 1 by letters, as follows:
# (§2) Method of evaluation of the results (of tests):
# (§3) 0 = no activity and no difference with respect to the control;
# (§4) 1 slight differences with respect to the control;
# (§5) 3 = considerable activity with damages that definitely impair the further development of most of the small plants; an activity degree already useful for practical purposes;
# (§6) 4 = maximum of activity with lack of germination or total containment of the small plants in the emerging stage.
# (§7) In the case of an intermediate activity between two classes of the scale, both values are recorded with the one which corresponds to the preeminent activity preceding.
# (§8) TABLE 2 reports the activity data of other compounds that fall within the class which is the object of this invention.
# (§9) TABLE 3 reports data on the herbicidal activity against infesting herbs, while TABLE 4 reports data concerning the activity on useful species of agricultural cultivations. These tables employ the criterion explained previously. The product was spread on the soil one day after sowing, in quantities of 1, 3, 6, 8, 10, 12 and 14 kg/ha.
# [4] = system: beta vulgaris L. (sugar-beet); assay: as above; format: in vivo
# Source text: as §1
# H = beta vulgaris L. (sugar-beet)
# as §2, §3, §4, §5, §6, §7, §8, §9
# [5] = system: phaseolus vulgaris (bean); assay: as above; format: in vivo, Phaseolus vulgaris L.
# Source text: as §1
# I = phaseolus vulgaris (bean)
# as §2, §3, §4, §5, §6, §7, §8, §9
# pisum sativum L. (pea) = assay: as above; format: in vivo
# Source text: as §1
# L = pisum sativum L. (pea)
# as §2, §3, §4, §5, §6, §7, §8
# TABLE 3 reports data on the herbicidal activity against infesting herbs, while TABLE 4 reports data concerning the activity on useful species of agricultural cultivations. These tables employ the criterion explained previously. […]
# solanum Lycopersicum L. = assay: as above; format: in vivo
# Source text: as §1
# M = solanum Lycopersicum L.
# as §2, §3, §4, §5, §6
# In the case of an intermediate activity between two classes of the scale, both values are recorded with the one which corresponds to the preeminent activity preceding. […]
# [6] = system: triticum vulgare L. (wheat); assay: as above; format: in vivo
# Source text: as §1
# N = triticum vulgare L. (wheat)
# as §2, §3, §4, §5, §6, §7, §8, §9
# zea mais L. (corn) = assay: as above; format: in vivo
# Source text: as §1, §2, §3, §4, §5, §6, §7, §8, §9
# oryza sativa L. (rice) = assay: as above; format: in vivo
# Source text: as §1
# P = oryza sativa L. (rice)
# as §2, §3, §4, §5, §6, §7, §8, §9
# Echinocloa crus-galli = assay: Example 1 pot test, submerged rice-field earth, granular composition; format: in vivo; settings: 3 kg/ha of active principle
# Experimental: (§10) A series of pots were prepared filled with rice-field earth. Into these were then sown Echinocloa crus-galli and rice. The earth was then submerged by 10 cm of water and immediately thereafter were uniformly spread on the submerged soil granular compositions, some of them containing 2% of PA 234 and 98% of phosphorite, some others 5% of PA 234 and 95% of bentonite, in doses graduated from 0 - 8 kg of active principle per hectar. The test pots were kept in a conditioned environment at controlled temperature and photo-period.
# rice = assay: as above; format: in vivo; settings: maximum dose; doses 0 - 8 kg/ha
# Experimental: as §10
# avena sativa (oats) [7] = assay: activity on agrarian species, soil treatment one day after sowing; format: in vivo, Avena sativa L.; remark: listed apart in the source
# infesting gramineae = assay: herbicidal action on infesting plants (general statements); format: in vivo; settings: in words
# Source text: (§11) It is understood that all the data given herein shall have no limiting character on the object of this invention.
# useful plants = assay: phytotoxic action on useful plants (general statements); format: in vivo, useful gramineae; settings: in words
# Source text: as §11
smiles,measurement,setting,value
"CCC(C)N(C(=O)c1cc(Cl)cc(Cl)c1)C(C)CC (centres unmarked) [PA234, 3,5-dichloro-N,N-di-sec.butyl-benzamide]","activity on A, 0-4 scale",[1]; 2 kg/ha,1-2
same,"activity on A, 0-4 scale",[1]; 4 kg/ha,2
same,"activity on A, 0-4 scale",[1]; 6 kg/ha,2-3
same,"activity on B, 0-4 scale",artemisia vulgaris L.; 2 kg/ha,0-1
same,"activity on B, 0-4 scale",artemisia vulgaris L.; 4 kg/ha,1
same,"activity on B, 0-4 scale",artemisia vulgaris L.; 6 kg/ha,1-2
same,"activity on C, 0-4 scale",chenopodium album L.; 2 kg/ha,1
same,"activity on C, 0-4 scale",chenopodium album L.; 4 kg/ha,2-1
same,"activity on C, 0-4 scale",chenopodium album L.; 6 kg/ha,2
same,"activity on D, 0-4 scale",[2]; 0-5 kg/ha (so in the source),2-1
same,"activity on D, 0-4 scale",[2]; 0.5 kg/ha,2-1
same,"activity on D, 0-4 scale",[2]; 1 kg/ha,2-3
same,"activity on D, 0-4 scale",[2]; 2 kg/ha,4
same,"activity on D, 0-4 scale",[2]; 4 kg/ha,4
same,"activity on D, 0-4 scale",[2]; 6 kg/ha,4
same,"activity on E, 0-4 scale",setaria glauca L.; 0-5 kg/ha (so in the source),3-2
same,"activity on E, 0-4 scale",setaria glauca L.; 0.5 kg/ha,3-2
same,"activity on E, 0-4 scale",setaria glauca L.; 1 kg/ha,3-4
same,"activity on E, 0-4 scale",setaria glauca L.; 2 kg/ha,4
same,"activity on E, 0-4 scale",setaria glauca L.; 4 kg/ha,4
same,"activity on E, 0-4 scale",setaria glauca L.; 6 kg/ha,4
same,"activity on F, 0-4 scale",vicia sativa L.; 2 kg/ha,0
same,"activity on F, 0-4 scale",vicia sativa L.; 4 kg/ha,0
same,"activity on F, 0-4 scale",vicia sativa L.; 6 kg/ha,0
same,"activity on G, 0-4 scale",avena sativa (oats) [3]; 6 kg/ha,0
same,"activity on H, 0-4 scale",[4]; 2 kg/ha,0
same,"activity on H, 0-4 scale",[4]; 4 kg/ha,1
same,"activity on H, 0-4 scale",[4]; 6 kg/ha,1
same,"activity on I, 0-4 scale",[5]; 2 kg/ha,0
same,"activity on I, 0-4 scale",[5]; 4 kg/ha,0
same,"activity on I, 0-4 scale",[5]; 6 kg/ha,0
same,"activity on L, 0-4 scale",pisum sativum L. (pea); 2 kg/ha,0
same,"activity on L, 0-4 scale",pisum sativum L. (pea); 4 kg/ha,0
same,"activity on L, 0-4 scale",pisum sativum L. (pea); 6 kg/ha,0
same,"activity on M, 0-4 scale",solanum Lycopersicum L.; 2 kg/ha,1
same,"activity on M, 0-4 scale",solanum Lycopersicum L.; 4 kg/ha,1
same,"activity on M, 0-4 scale",solanum Lycopersicum L.; 6 kg/ha,1
same,"activity on N, 0-4 scale",[6]; 2 kg/ha,0
same,"activity on N, 0-4 scale",[6]; 4 kg/ha,0
same,"activity on N, 0-4 scale",[6]; 6 kg/ha,0
same,"activity on O, 0-4 scale",zea mais L. (corn); 2 kg/ha,0
same,"activity on O, 0-4 scale",zea mais L. (corn); 4 kg/ha,0
same,"activity on O, 0-4 scale",zea mais L. (corn); 6 kg/ha,0
same,"activity on P, 0-4 scale",oryza sativa L. (rice); 6 kg/ha,0
same,growth of Echinocloa crus-galli,Echinocloa crus-galli,totally inhibited
same,damage to rice,rice,remained undamaged
same,"activity on G, 0-4 scale",avena sativa (oats) [7]; 2 kg/ha,0
same,"activity on G, 0-4 scale",avena sativa (oats) [7]; 4 kg/ha,0
"CCN(CC)C(=O)c1cc(Cl)cc(Cl)c1 [PA291, 3,5-dichloro-N,N-diethyl-benzamide, reference compound]","activity on A, 0-4 scale",[1]; 2 kg/ha,2-3
same,"activity on A, 0-4 scale",[1]; 4 kg/ha,3
same,"activity on A, 0-4 scale",[1]; 6 kg/ha,3-4
same,"activity on B, 0-4 scale",artemisia vulgaris L.; 2 kg/ha,3
same,"activity on B, 0-4 scale",artemisia vulgaris L.; 4 kg/ha,3-4
same,"activity on B, 0-4 scale",artemisia vulgaris L.; 6 kg/ha,4
same,"activity on C, 0-4 scale",chenopodium album L.; 2 kg/ha,2-3
same,"activity on C, 0-4 scale",chenopodium album L.; 4 kg/ha,3
same,"activity on C, 0-4 scale",chenopodium album L.; 6 kg/ha,3
same,"activity on D, 0-4 scale",[2]; 2 kg/ha,1-2
same,"activity on D, 0-4 scale",[2]; 4 kg/ha,2-3
same,"activity on D, 0-4 scale",[2]; 6 kg/ha,4
same,"activity on E, 0-4 scale",setaria glauca L.; 2 kg/ha,2-3
same,"activity on E, 0-4 scale",setaria glauca L.; 4 kg/ha,3
same,"activity on E, 0-4 scale",setaria glauca L.; 6 kg/ha,4
same,"activity on F, 0-4 scale",vicia sativa L.; 2 kg/ha,2-3
same,"activity on F, 0-4 scale",vicia sativa L.; 4 kg/ha,3
same,"activity on F, 0-4 scale",vicia sativa L.; 6 kg/ha,3-4
same,"activity on N, 0-4 scale",[6]; in vivo,4
same,"activity on O, 0-4 scale",zea mais L. (corn); in vivo,4
same,"activity on P, 0-4 scale",oryza sativa L. (rice); in vivo,4
same,herbicidal action,infesting gramineae,very active
same,phytotoxic action on useful plants,useful plants,phytotoxic action of considerable intensity
"CC(C)N(C(=O)c1cc(Cl)cc(Cl)c1Cl)C(C)C [PA302, 2,3,5-trichloro-N,N-di-iso-propyl-benzamide, reference compound]","activity on A, 0-4 scale",[1]; 3 kg/ha,2
same,"activity on A, 0-4 scale",[1]; 6 kg/ha,2-3
same,"activity on B, 0-4 scale",artemisia vulgaris L.; 1 kg/ha,1-2
same,"activity on B, 0-4 scale",artemisia vulgaris L.; 3 kg/ha,2
same,"activity on B, 0-4 scale",artemisia vulgaris L.; 6 kg/ha,2
same,"activity on C, 0-4 scale",chenopodium album L.; 1 kg/ha,2
same,"activity on C, 0-4 scale",chenopodium album L.; 3 kg/ha,3
same,"activity on C, 0-4 scale",chenopodium album L.; 6 kg/ha,3
same,"activity on D, 0-4 scale",[2]; 3 kg/ha,4
same,"activity on D, 0-4 scale",[2]; 6 kg/ha,4
same,"activity on E, 0-4 scale",setaria glauca L.; 1 kg/ha,3-4
same,"activity on E, 0-4 scale",setaria glauca L.; 3 kg/ha,4
same,"activity on E, 0-4 scale",setaria glauca L.; 6 kg/ha,4
same,"activity on F, 0-4 scale",vicia sativa L.; 1 kg/ha,0
same,"activity on F, 0-4 scale",vicia sativa L.; 3 kg/ha,0-1
same,"activity on F, 0-4 scale",vicia sativa L.; 6 kg/ha,0-1
same,"activity on P, 0-4 scale",oryza sativa L. (rice); in vivo,4-3
same,herbicidal action,infesting gramineae,very active
same,phytotoxic action on useful plants,useful plants,phytotoxic action of considerable intensity
"CCC(C)N(C(=O)c1ccc(Cl)c(Br)c1)C(C)CC (centres unmarked) [PA489, 3-bromo,4-chloro-N,N-di-sec.butyl-benzamide]","activity on A, 0-4 scale",[1]; 2 kg/ha,1
same,"activity on A, 0-4 scale",[1]; 4 kg/ha,1-2
same,"activity on A, 0-4 scale",[1]; 6 kg/ha,3
same,"activity on B, 0-4 scale",artemisia vulgaris L.; 2 kg/ha,0-1
same,"activity on B, 0-4 scale",artemisia vulgaris L.; 4 kg/ha,1
same,"activity on B, 0-4 scale",artemisia vulgaris L.; 6 kg/ha,3
same,"activity on C, 0-4 scale",chenopodium album L.; 2 kg/ha,1
same,"activity on C, 0-4 scale",chenopodium album L.; 4 kg/ha,1-2
same,"activity on C, 0-4 scale",chenopodium album L.; 6 kg/ha,2
same,"activity on D, 0-4 scale",[2]; 2 kg/ha,3-2
same,"activity on D, 0-4 scale",[2]; 4 kg/ha,3-4
same,"activity on D, 0-4 scale",[2]; 6 kg/ha,3-4
same,"activity on E, 0-4 scale",setaria glauca L.; 2 kg/ha,3
same,"activity on E, 0-4 scale",setaria glauca L.; 4 kg/ha,4-3
same,"activity on E, 0-4 scale",setaria glauca L.; 6 kg/ha,4
same,"activity on F, 0-4 scale",vicia sativa L.; 2 kg/ha,0
same,"activity on F, 0-4 scale",vicia sativa L.; 4 kg/ha,0
same,"activity on F, 0-4 scale",vicia sativa L.; 6 kg/ha,0-1
same,"activity on G, 0-4 scale",avena sativa (oats) [3]; 3 kg/ha,0
same,"activity on G, 0-4 scale",avena sativa (oats) [3]; 6 kg/ha,0
same,"activity on H, 0-4 scale",[4]; 6 kg/ha,1
same,"activity on I, 0-4 scale",[5]; 3 kg/ha,0
same,"activity on I, 0-4 scale",[5]; 6 kg/ha,0
same,"activity on L, 0-4 scale",pisum sativum L. (pea); 3 kg/ha,0
same,"activity on L, 0-4 scale",pisum sativum L. (pea); 6 kg/ha,0
same,"activity on M, 0-4 scale",solanum Lycopersicum L.; 6 kg/ha,1
same,"activity on N, 0-4 scale",[6]; 3 kg/ha,0
same,"activity on N, 0-4 scale",[6]; 6 kg/ha,0
same,"activity on O, 0-4 scale",zea mais L. (corn); 3 kg/ha,0
same,"activity on O, 0-4 scale",zea mais L. (corn); 6 kg/ha,0
same,"activity on P, 0-4 scale",oryza sativa L. (rice); 3 kg/ha,0
same,"activity on P, 0-4 scale",oryza sativa L. (rice); 6 kg/ha,0
